Experimental data published in patent US11987576B2, “Compositions and methods for decreasing, or preventing or reversing gain of, skin pigmentation in a mammalian subject” (THE TRUSTEES OF THE UNIVERSITY OF PENNSYLVANIA, priority 2015, dated 2024).

What was measured:
ER = details: cited from earlier work
3-D organotypic skin [1] = experiment: Fontana-Masson melanin staining of 3-D organotypic skin; format: cell-based, human; details: vs vehicle
PR = molecular target: T1, PR (Homo sapiens, UniProt P06401); details: cited from earlier work
T1 sequence (P06401 1-933): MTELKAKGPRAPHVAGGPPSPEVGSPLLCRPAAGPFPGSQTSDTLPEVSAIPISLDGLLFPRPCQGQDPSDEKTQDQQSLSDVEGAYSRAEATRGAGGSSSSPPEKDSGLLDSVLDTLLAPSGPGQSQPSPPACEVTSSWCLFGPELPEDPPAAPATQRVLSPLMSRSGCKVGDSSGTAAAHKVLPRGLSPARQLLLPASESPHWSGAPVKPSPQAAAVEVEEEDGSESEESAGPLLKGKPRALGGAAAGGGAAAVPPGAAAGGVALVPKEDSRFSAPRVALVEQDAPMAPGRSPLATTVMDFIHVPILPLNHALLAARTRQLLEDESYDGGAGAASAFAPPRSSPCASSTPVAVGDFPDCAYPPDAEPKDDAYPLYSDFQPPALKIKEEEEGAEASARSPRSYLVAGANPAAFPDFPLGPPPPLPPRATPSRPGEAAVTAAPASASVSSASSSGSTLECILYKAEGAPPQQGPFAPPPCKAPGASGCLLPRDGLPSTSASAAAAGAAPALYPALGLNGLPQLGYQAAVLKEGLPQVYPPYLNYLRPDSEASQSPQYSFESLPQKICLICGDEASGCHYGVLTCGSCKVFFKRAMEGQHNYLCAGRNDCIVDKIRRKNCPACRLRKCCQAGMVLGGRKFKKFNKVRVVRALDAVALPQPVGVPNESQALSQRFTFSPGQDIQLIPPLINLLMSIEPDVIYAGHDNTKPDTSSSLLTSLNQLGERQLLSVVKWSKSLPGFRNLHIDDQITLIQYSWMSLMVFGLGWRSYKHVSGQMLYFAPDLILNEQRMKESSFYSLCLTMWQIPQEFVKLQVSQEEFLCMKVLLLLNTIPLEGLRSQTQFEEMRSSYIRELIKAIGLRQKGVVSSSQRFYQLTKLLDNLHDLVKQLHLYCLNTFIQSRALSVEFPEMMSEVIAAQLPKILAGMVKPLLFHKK

3-D organotypic skin [2] = experiment: MITF immunohistochemistry of organotypic skin (melanocyte population density); format: cell-based, human; details: vs vehicle
Text: Formalin fixed paraffin embedded (FFPE) human skin tissue sections from organotypic tissue was stained for MITF protein expression using a primary antibody to MITF (Leica Biosystems, NCL-L-MITF, 1:15).

cAMP = cAMP ELISA on primary human melanocytes; format: cell-based
Experimental: cAMP ELISA was performed on primary human melanocytes using the Cyclic AMP XP Assay Kit (Cell Signaling Technology, #4339) following manufacturer instructions.

pCREB and MITF = experiment: Western blot of classical melanin pathway regulators in melanocytes; format: cell-based, human; details: 1 μM overnight
Experimental: Adherent cells were treated with 1 μM doses of E2 and P4 overnight, washed once with DPBS, and lysed with 1% NP-40 buffer (150 mM NaCl, 50 mM Tris, pH 7.5, 1 mM EDTA, and 1% NP-40) containing 1× protease inhibitors (Roche) and 1× phosphatase inhibitors (Roche). Lysates were quantified (Bradford assay), normalized, reduced, denatured (95° C.) and resolved by SDS gel electrophoresis on 4-15% Tris/Glycine gels (Bio-Rad). Resolved protein was transferred to PVDF membranes (Millipore) using a Semi-Dry Transfer Cell (Bio-Rad), blocked in 5% dry milk in TBS-T and probed with primary antibodies recognizing MITF (Cell Signaling Technology, #12590, 1:1000), pCREB (Cell Signaling Technology, #9198, 1:1000), CREB (Cell Signaling Technology, #9104, 1:1000), and β-Actin (Cell Signaling Technology, #3700, 1:4000). After incubation with the appropriate secondary antibody, proteins were detected using either Luminata Crescendo Western HRP Substrate (Millipore) or ECL Western Blotting Analysis System (GE Healthcare).

Row | Compound | inhibitory activity against ER (ER) | melanin production in skin tissue (3-D organotypic skin [1]) | binding to PR (PR) | total melanocyte number or density (3-D organotypic skin [2]) | cAMP (cAMP) | MITF protein (pCREB and MITF) | pCREB protein (pCREB and MITF)
1 | Brc1cc2c(cc1[C@H]1Nc3ccccc3[C@@H]3C=CC[C@H]13)OCO2 (relative stereo) [G-15, rel-(3aS,4S,9bR)-4-(6-bromobenzo[d][1,3]dioxol-5-yl)-3a,4,5,9b-tetrahydro-3H-cyclopenta[c]quinoline] | do not have inhibitory activity | – | – | – | – | – | –
2 | C=C[C@]12CCC(=O)C=C1CC[C@H]1[C@@H]3CC[C@H](C(C)=O)[C@@]3(C)CC[C@@H]12 (relative stereo) [CH2P4, rel-(8S,9S,10S,13 S,14S,17S)-17-acetyl-13-methyl-10-vinyl-6,7,8,9,10,11,12,13,14,15,16,17-dodecahydro-1H-cyclopenta[a]phenanthren-3 (2H)-one] | – | decrease in melanin production | does not bind | – | – | – | –
3 | CC(=O)[C@H]1CC[C@H]2[C@@H]3CCC4=CC(=O)CC[C@]4(C)[C@H]3CC[C@]12C [progesterone] | – | decreased melanin production by nearly half | – | without affecting overall melanocyte cell number | decreases | decreases | decreases
